Columns and labels:
[1] = system: control sera (pooled serum of ten healthy LUMC hospital workers; commercial negative donor pooled serum from the Dutch bloodbank); assay type: binding, human; set-up: Binding of Control serum LUMC to linear peptides / Binding of Control serum Blood-bank to linear peptides / Binding of Control serum LUMC to looped peptides / Binding of Control Serum Blood-Bank to Looped peptides / Binding of Control serum LUMC to linear peptides of the protein M of SARS-CoV Urbani / Binding of Control serum Blood-bank to linear peptides of the protein M of SARS-CoV Urbani / Binding of Control serum LUMC to looped peptides of the protein M of SARS-CoV Urbani / Binding of Control Serum Blood-Bank to Looped peptides of the protein M of SARS-CoV Urbani: unit not given here
[2] = system: antibodies in sera from SARS patients (sera 1a, 1b, 2, 6, 37, 62, London, SARS-yellow, SARS-green); assay type: binding, human; set-up: Binding of serum 6 to linear peptides of protein X1 of SARS-CoV Urbani / Binding of serum 37 to linear peptides of protein X1 of SARS-CoV Urbani / Binding of serum 6 to looped/cyclic peptide (PEPSCAN-ELISA) / Binding of serum 37 to looped/cyclic peptide (PEPSCAN-ELISA) / Binding of serum 37 to looped/cyclic peptides of protein X1 of SARS-CoV Urbani / Binding of serum 6 to linear peptides of protein X2 / Binding of serum 37 to linear peptides of protein X2 / Binding of serum 37 to looped/cyclic peptides of protein X2 of SARS-CoV Urbani / Binding of serum 6 to linear peptides of protein M of SARS-CoV Urbani / Binding of serum 37 to linear peptides of protein M of SARS-CoV Urbani / Binding of serum 6 to looped/cyclic peptides of protein M of SARS-CoV Urbani / Binding of serum 37 to looped/cyclic peptides of protein M of SARS-CoV Urbani / Binding of serum 6 to linear peptides of protein X3 of SARS-CoV Urbani / Binding of serum 37 to linear peptides of protein X3 of SARS-CoV Urbani / Binding of serum 37 to looped/cyclic peptides of protein X3 of SARS-CoV Urbani / Binding of serum 6 to linear peptides of protein X4 of SARS-CoV Urbani / Binding of serum 37 to linear peptides of protein X4 of SARS-CoV Urbani / Binding of serum 37 to looped/cyclic peptides of protein X4 of SARS-CoV Urbani / Binding of serum 6 to linear peptides of protein X5 of SARS-CoV Urbani / Binding of serum 37 to linear peptides of protein X5 of SARS-CoV Urbani / Binding of serum 37 to looped/cyclic peptides of protein X5 of SARS-CoV Urbani / Binding of serum 6 to linear peptides of protein N of SARS-CoV Urbani / Binding of serum 37 to linear peptides of protein N of SARS-CoV Urbani / Binding of serum 6 to linear peptide (PEPSCAN-ELISA) / Binding of serum 1a to looped/cyclic peptides of protein N of SARS-CoV Urbani / Binding of serum 1b to looped/cyclic peptides of protein N of SARS-CoV Urbani / Binding of serum 2 to looped/cyclic peptides of protein N of SARS-CoV Urbani / Binding of serum 6 to looped/cyclic peptides of protein N of SARS-CoV Urbani / Binding of serum 37 to looped/cyclic peptides of protein N of SARS-CoV Urbani / Binding of serum 62 to looped/cyclic peptides of protein N of SARS-CoV Urbani / Binding of serum London to looped/cyclic peptides of protein N of SARS-CoV Urbani / Binding of serum SARS-green to looped/cyclic peptides of protein N of SARS-CoV Urbani: unit not given here
[3] = system: rabbit serum obtained by immunizing a rabbit with the SARS-CoV strain Frankfurt 1; assay type: binding; set-up: Binding of a rabbit serum to linear peptides / Binding of a rabbit serum to looped peptides / Rabbit serum linear peptides / Rabbit serum looped peptides / Binding of a rabbit serum to linear peptides of protein N of SARS-CoV Urbani (Rabbit serum linear peptides) / Binding of a rabbit serum to looped/cyclic peptides of protein N of SARS-CoV Urbani (Rabbit serum looped peptides): unit not given here

IAIWNLDVIISSIVR
Binding of Control Serum Blood-Bank to Looped peptides of the protein X3 of SARS-CoV Urbani [1]: 0.7
Binding of Control serum Blood-bank to linear peptides of the protein X3 of SARS-CoV Urbani [1]: 0.6
Binding of Control serum LUMC to linear peptides of the protein X3 of SARS-CoV Urbani [1]: 0.5
Binding of Control serum LUMC to looped peptides of the protein X3 of SARS-CoV Urbani [1]: 0.7
Binding of serum 1a to linear peptides of protein X3 of SARS-CoV Urbani [2]: 0.7
Binding of serum 1a to looped/cyclic peptides of protein X3 of SARS-CoV Urbani [2]: 0.7
Binding of serum 1b to linear peptides of protein X3 of SARS-CoV Urbani [2]: 0.5
Binding of serum 1b to looped/cyclic peptides of protein X3 of SARS-CoV Urbani [2]: 0.3
Binding of serum 2 to linear peptides of protein X3 of SARS-CoV Urbani [2]: 0.6
Binding of serum 2 to looped/cyclic peptides of protein X3 of SARS-CoV Urbani [2]: 0.6
Binding of serum 6 to linear peptides of protein X3 of SARS-CoV Urbani [2]: 0.5
Binding of serum 6 to looped/cyclic peptides of protein X3 of SARS-CoV Urbani [2]: 0.4
Binding of serum 37 to linear peptides of protein X3 of SARS-CoV Urbani [2]: 0.5
Binding of serum 37 to looped/cyclic peptides of protein X3 of SARS-CoV Urbani [2]: 0.6
Binding of serum 62 to linear peptides of protein X3 of SARS-CoV Urbani [2]: 0.6
Binding of serum 62 to looped/cyclic peptides of protein X3 of SARS-CoV Urbani [2]: 0.5
Binding of serum London to linear peptides of protein X3 of SARS-CoV Urbani [2]: 0.6
Binding of serum London to looped/cyclic peptides of protein X3 of SARS-CoV Urbani [2]: 0.2
Binding of serum SARS-green to linear peptides of protein X3 of SARS-CoV Urbani [2]: 0.3
Binding of serum SARS-green to looped/cyclic peptides of protein X3 of SARS-CoV Urbani [2]: 0.0
Binding of serum SARS-yellow to linear peptides of protein X3 of SARS-CoV Urbani [2]: 0.4
Binding of serum SARS-yellow to looped/cyclic peptides of protein X3 of SARS-CoV Urbani [2]: 0.6
Rabbit serum linear peptides [3]: 0.3
Rabbit serum looped peptides [3]: 0.3

ICNLLLLFVTIYSHL
Binding of Control Serum Blood-Bank to Looped peptides [1]: 0.5
Binding of Control serum Blood-bank to linear peptides [1]: 0.5
Binding of Control serum LUMC to linear peptides [1]: 0.5
Binding of Control serum LUMC to looped peptides [1]: 0.4
Binding of serum 1a to linear peptides of protein X1 of SARS-CoV Urbani [2]: 0.6
Binding of serum 1a to looped/cyclic peptide (PEPSCAN-ELISA) [2]: 0.4
Binding of serum 1b to linear peptides of protein X1 of SARS-CoV Urbani [2]: 0.6
Binding of serum 1b to looped/cyclic peptide (PEPSCAN-ELISA) [2]: 0.3
Binding of serum 2 to linear peptides of protein X1 of SARS-CoV Urbani [2]: 0.5
Binding of serum 2 to looped/cyclic peptide (PEPSCAN-ELISA) [2]: 0.4
Binding of serum 6 to linear peptides of protein X1 of SARS-CoV Urbani [2]: 0.4
Binding of serum 6 to looped/cyclic peptide (PEPSCAN-ELISA) [2]: 0.2
Binding of serum 37 to linear peptides of protein X1 of SARS-CoV Urbani [2]: 0.6
Binding of serum 37 to looped/cyclic peptide (PEPSCAN-ELISA) [2]: 0.4
Binding of serum 62 to linear peptides of protein X1 of SARS-CoV Urbani [2]: 0.5
Binding of serum 62 to looped/cyclic peptide (PEPSCAN-ELISA) [2]: 0.5
Binding of serum London to linear peptides of protein X1 of SARS-CoV Urbani [2]: 0.2
Binding of serum London to looped/cyclic peptide (PEPSCAN-ELISA) [2]: 0.2
Binding of serum SARS-green to linear peptides of protein X1 of SARS-CoV Urbani [2]: 0.3
Binding of serum SARS-green to looped/cyclic peptide (PEPSCAN-ELISA) [2]: 0.2
Binding of serum SARS-yellow to linear peptides of protein X1 of SARS-CoV Urbani [2]: 0.4
Binding of serum SARS-yellow to looped/cyclic peptide (PEPSCAN-ELISA) [2]: 0.4
Binding of a rabbit serum to linear peptides [3]: 0.2
Binding of a rabbit serum to looped peptides [3]: 0.5

IGFLFLAWIMLLQFA
Binding of Control Serum Blood-Bank to Looped peptides of the protein M of SARS-CoV Urbani [1]: 0.7
Binding of Control serum Blood-bank to linear peptides of the protein M of SARS-CoV Urbani [1]: 0.7
Binding of Control serum LUMC to linear peptides of the protein M of SARS-CoV Urbani [1]: 0.7
Binding of Control serum LUMC to looped peptides of the protein M of SARS-CoV Urbani [1]: 0.8
Binding of serum 1a to linear peptides of protein M of SARS-CoV Urbani [2]: 0.7
Binding of serum 1a to looped/cyclic peptides of protein M of SARS-CoV Urbani [2]: 0.8
Binding of serum 1b to linear peptides of protein M of SARS-CoV Urbani [2]: 0.6
Binding of serum 1b to looped/cyclic peptides of protein M of SARS-CoV Urbani [2]: 0.7
Binding of serum 2 to linear peptides of protein M of SARS-CoV Urbani [2]: 0.5
Binding of serum 2 to looped/cyclic peptides of protein M of SARS-CoV Urbani [2]: 0.6
Binding of serum 6 to linear peptides of protein M of SARS-CoV Urbani [2]: 0.9
Binding of serum 6 to looped/cyclic peptides of protein M of SARS-CoV Urbani [2]: 0.9
Binding of serum 37 to linear peptides of protein M of SARS-CoV Urbani [2]: 0.4
Binding of serum 37 to looped/cyclic peptides of protein M of SARS-CoV Urbani [2]: 0.7
Binding of serum 62 to linear peptides of protein M of SARS-CoV Urbani [2]: 0.5
Binding of serum 62 to looped/cyclic peptides of protein M of SARS-CoV Urbani [2]: 0.8
Binding of serum London to linear peptides of protein M of SARS-CoV Urbani [2]: 0.6
Binding of serum London to looped/cyclic peptides of protein M of SARS-CoV Urbani [2]: 0.3
Binding of serum SARS-green to linear peptides of protein M of SARS-CoV Urbani [2]: 0.5
Binding of serum SARS-green to looped/cyclic peptides of protein M of SARS-CoV Urbani [2]: 0.3
Binding of serum SARS-yellow to linear peptides of protein M of SARS-CoV Urbani [2]: 0.2
Binding of serum SARS-yellow to looped/cyclic peptides of protein M of SARS-CoV Urbani [2]: 0.5
Rabbit serum linear peptides [3]: 0.2
Rabbit serum looped peptides [3]: 0.3

IIMRCWLCWKCKSKN
Binding of Control Serum Blood-Bank to Looped peptides [1]: 0.6
Binding of Control serum Blood-bank to linear peptides [1]: 0.5
Binding of Control serum LUMC to linear peptides [1]: 0.4
Binding of Control serum LUMC to looped peptides [1]: 0.6
Binding of serum 1a to looped/cyclic peptide (PEPSCAN-ELISA) [2]: 0.5
Binding of serum 1b to looped/cyclic peptide (PEPSCAN-ELISA) [2]: 0.3
Binding of serum 2 to looped/cyclic peptide (PEPSCAN-ELISA) [2]: 0.3
Binding of serum 6 to looped/cyclic peptide (PEPSCAN-ELISA) [2]: 0.5
Binding of serum 37 to looped/cyclic peptide (PEPSCAN-ELISA) [2]: 0.4
Binding of serum 62 to looped/cyclic peptide (PEPSCAN-ELISA) [2]: 0.5
Binding of serum London to looped/cyclic peptide (PEPSCAN-ELISA) [2]: 0.2
Binding of serum SARS-green to looped/cyclic peptide (PEPSCAN-ELISA) [2]: 0.2
Binding of serum SARS-yellow to looped/cyclic peptide (PEPSCAN-ELISA) [2]: 0.3
Recognition of the peptide by sera of SARS-CoV infected individuals, and form (linear, looped/cyclic) in which it is recognized [2]: recognized in linear form
Binding of a rabbit serum to linear peptides [3]: 0.2
Binding of a rabbit serum to looped peptides [3]: 0.7
